Starred links: 1 amine or outer side, 2 acyl side, 3 side chain; linkers in the order of their positions; H or OH if unused. Positions of bridges follow the written chain, without caps; N, C: chain ends. Residues, ends and D or L forms follow the SMILES beside them. *: point of attachment. C18 diacid = O=C(O)CCCCCCCCCCCCCCCCC(=O)*; γGlu = O=C(O)[C@H](CCC(=O)[*:2])N[*:1]
Assays:
[1] = PK after i.v. and s.c. administration to domestic LYD pig; settings: female, domestic LYD pig, pig, in vivo, sc
Description: The purpose of this study was to investigate pharmacokinetic and pharmacodynamic properties after intravenous (i.v.) and subcutaneous (s.c.) administration to Gottingen Minipig and domestic LYD pig, and to estimate bioavailability after s.c. dosing. Quantitative plasma analysis of CNP and cGMP levels were performed as described in
Animals and dosing: The pharmacokinetic and pharmacodynamic studies in Gottingen Minipig or domestic LYD pig were conducted at CRO Minerva Imaging or Novo Nordisk A/S, respectively. CNP compounds were dosed to normal female 1) Gottingen minipigs 6-12 months of age with an average weight of 22 kg or 2) domestic LYD pigs 4-5 months of age with and average weight of 80 kg. At least one week prior to dosing, permanent central venous catheters were implanted for blood sampling and intravenous (i.v.) dosing. For subcutaneous (s.c.) dosing, the pigs were ultrasound scanned and the optimal injection area laterally on the neck marked by a permanent tattoo. An insulin pen (NovoPen Echo or NovoPen 4) and insulin needle (NovoFine 32G/4 mm or NovoTwist 32G/5 mm) were used for accurate deposition of the CNP formulations in the subcutaneous fat tissue with the needle perpendicular to the skin.
CNP compounds were formulated according to the principles in General Methods of Preparation—Method G and were either A) 8 mM sodium phosphate, 250 mM glycerol, pH 6.5, B) 5 mM sodium acetate, 250 mM glycerol, pH 4.0, C) 5 mM sodium acetate, 240 mM propylene glycol, pH=4.0, D) 8 mM sodium phosphate, 250 mM glycerol, pH 7.5 or E) 20 mM sodium phosphate, 223 mM propylene glycol, pH 6.0.
Intravenously, the CNP compounds were dosed at 30-60 nmol/kg to Minipig and 15-43 nmol/kg to domestic pig using formulations A-E. Subcutaneously, the CNP compounds were dosed at 55-62 nmol/kg to Minipig and 20-30 nmol/kg to domestic pig using formulations A-D.
Sampling: Blood samples of approximately 1 mL were collected pre dose and up to 14 days post dose into EDTA-coated tubes (8 mM) for cGMP and CNP compound analysis by LC-MS. In few instances, cGMP was only analysed up to 48 hours post dose after intravenous dosing in domestic LYD pig. The blood samples were kept on wet ice for maximum 30 minutes until centrifugation for 10 minutes at 4° C. and minimum 1500G, and the plasma samples were stored at −20° C. until analysis.
Plasma concentration-time profiles were analyzed by non-compartmental PK analysis using Phoenix WinNonlin 8.1, Pharsight Inc., Mountain View, CA, USA. Calculation of the area under the plasma concentration-time curve (AUC) was based on the “linear up log down” method, and uniform weighting was used for estimation of the terminal rate constant (λz). S.c. bioavailability (F) was calculated as the dose-normalized AUC (AUC/dose) after s.c. administration divided by the AUC/dose after i.v. administration. […]

[2] = Telemetry measurement of heart rate and blood pressure in awake rats; type: in vivo, Sprague Dawley rat; settings: for Heart rate: 30 min, P (vs vehicle) / Heart rate: 12 h, P (vs vehicle) / Mean arterial pressure: 30 min, P (vs vehicle) / Mean arterial pressure: 12 h, P (vs vehicle): paired t test; for Heart rate: 12 h, Mean (bpm) / Mean arterial pressure: 12 h, Mean (mmHg) / Heart rate: 30 min, Mean (bpm) / Mean arterial pressure: 30 min, Mean (mmHg): awake rats; for Heart rate: 12 h, Mean (bpm) / Mean arterial pressure: 12 h, Mean (mmHg): average of first 12 h; for Heart rate: 30 min, Mean (bpm) / Mean arterial pressure: 30 min, Mean (mmHg): first 30 min; for increase in HR: P<0.05
Description: The purpose of the study was to investigate the effect of acute dosing with the CNP compound 9482 (Chem. 137) on mean blood pressure (MAP) and heart rate (HR) in awake rats.
Procedure: The transducers are implanted in Sprague Dawley rats (Charles River) and the rats are allowed a 2-3-week period for recovery. Before surgery, the devices are registered in the software by placing them on a receiver plate and powered on. Sterile saline is added to the transducer catheter before surgery start, and the transmitter is then powered on. The transmitters are placed in the abdomen with the sensor in aorta abdominalis. Isoflurane is used as anaesthetic, and during and after surgery, the rats receive Temgesic (0.05 mg/kg s.c.), Norodyl (5 mg/kg s.c.), and Baytril (10 mg/kg s.c.) as pain relief and to prevent bacterial infection.
Study design: Rats are housed 2/cage (1 with device and 1 as social partner). All animals will have free access to water and food (altromin) throughout the entire study. The rats will be housed in light cycles with light from 6 AM to 6 PM and dark from 6 PM to 6 AM. Eight rats are divided into 2 groups according to a crossover study design.
Telemetry: Each rat is equipped with a transducer (HD-S10 from DSI) capable of measuring blood pressure, heart rate, and activity using Ponemah software with a 100 Hz frequency. During measurements, there should be no disturbances in the room that the rats are housed in to minimize variability in the data. A 4-hour baseline recording will be taken prior to start of the study to capture mean arterial pressure (MAP) and heart rate (HR) patterns in untreated, undisturbed rats. The recording period after drug administration was 24 hours.
Dosing scheme: Rats are dosed in a crossover study design with 4 rats in each group. Each rat is given a washout period of 1 week prior to the next dosing event. Dosing will be intravenous (IV) in the tail vein. Dosing of 9482 was tested in 30, 100, and 300 nmol/kg i.v. in separate experiments. The vehicle consists of 8 mM phosphate, 250 mM glycerol, pH 7.4.
Data analysis and statistics was conducted in Ponemah software and Graphpad prism. For statistics, a paired t test was applied with a confidence level of 95% and P<0.05 denoting statistical significance.

[3] = first 30 min after dosing, 30, 100, or 300 nmol/kg i.v.

Work on `CC[C@H](C)[C@@H]1NC(=O)[C@H](CCCNC(=N)N)NC(=O)[C@H](CC(=O)O)NC(=O)[C@H](CC(C)C)NC(=O)[C@H](CCCCN)NC(=O)[C@H](CC(C)C)NC(=O)CNC(=O)[C@H](Cc2ccccc2)NC(=O)[C@@H](NC(=O)CNC(=O)[C@H](CCCCN)NC(=O)[C@H](CO)NC(=O)[C@H](CC(C)C)NC(=O)CNC(=O)[C@H](CCCCN)NC(=O)[C@H](CCCCN)NC(=O)[C@H](CCC(N)=O)NC(=O)[C@H](C)NC(=O)CNC(=O)[C@H](Cc2c[nH]cn2)NC(=O)[C@H](CCC(=O)O)NC(=O)COCCOCCNC(=O)COCCOCCNC(=O)CC[C@H](NC(=O)CCCCCCCCCCCCCCCCC(=O)O)C(=O)O)CSSC[C@@H](C(=O)O)NC(=O)CNC(=O)[C@H](CC(C)C)NC(=O)CNC(=O)[C@H](CO)NC(=O)[C@H](CC(C)C)NC(=O)[C@H](CO)NC(=O)CNC1=O` [compound 1235] yielded a bioavailability [1] of 25%.
With `CC[C@H](C)[C@@H]1NC(=O)[C@H](CCCNC(=N)N)NC(=O)[C@H](CC(=O)O)NC(=O)[C@H](CC(C)C)NC(=O)[C@@H]2CCCN2C(=O)[C@H](CC(C)C)NC(=O)CNC(=O)[C@H](Cc2ccccc2)NC(=O)[C@@H](NC(=O)CNC(=O)[C@H](CO)NC(=O)[C@H](CO)NC(=O)[C@H](CC(C)C)NC(=O)CNC(=O)[C@H](CCCCN)NC(=O)[C@H](CCCCN)NC(=O)[C@H](CCC(N)=O)NC(=O)[C@H](C)NC(=O)CNC(=O)[C@H](CCCCN)NC(=O)[C@H](Cc2ccc(O)cc2)NC(=O)[C@H](CCCCN)NC(=O)[C@H](CCCNC(=N)N)NC(=O)[C@H](C)NC(=O)[C@H](CCC(N)=O)NC(=O)[C@@H]2CCCN2C(=O)[C@H](Cc2c[nH]cn2)NC(=O)[C@H](CCC(=O)O)NC(=O)[C@H](CCC(N)=O)NC(=O)CC[C@H](NC(=O)CC[C@H](NC(=O)CC[C@H](NC(=O)CC[C@H](NC(=O)CC[C@H](NC(=O)CCCCCCCCCCCCCCCCC(=O)O)C(=O)O)C(=O)O)C(=O)O)C(=O)O)C(=O)O)CSSC[C@@H](C(=O)O)NC(=O)CNC(=O)[C@H](CC(C)C)NC(=O)CNC(=O)[C@H](CO)NC(=O)[C@H](CC(C)C)NC(=O)[C@H](CO)NC(=O)CNC1=O` [compound 9482] ({C18 diacid-γGlu-γGlu-γGlu-γGlu-γGlu}-QEHPQARKYKGAQKKGLSSGCFGLPLDRIGSLSGLGC-OH; disulfide 21-37) the “Heart rate: 30 min, P (vs vehicle)” value ([2]; 30 nmol/kg i.v.) was “ns”, the “Heart rate: 12 h, P (vs vehicle)” value ([2]; 30 nmol/kg i.v.) was “ns” and the “Mean arterial pressure: 30 min, P (vs vehicle)” value ([2]; 30 nmol/kg i.v.) was “ns”. The “Mean arterial pressure: 12 h, P (vs vehicle)” value ([2]; 30 nmol/kg i.v.) was “ns”, the “Heart rate: 30 min, P (vs vehicle)” value ([2]; 100 nmol/kg i.v.) was “ns” and the “Heart rate: 12 h, P (vs vehicle)” value ([2]; 100 nmol/kg i.v.) was 0.04. The “Mean arterial pressure: 30 min, P (vs vehicle)” value ([2]; 100 nmol/kg i.v.) was “ns”, the “Mean arterial pressure: 12 h, P (vs vehicle)” value ([2]; 100 nmol/kg i.v.) was “ns” and the “Heart rate: 30 min, P (vs vehicle)” value ([2]; 300 nmol/kg i.v.) was “ns”. The “Heart rate: 12 h, P (vs vehicle)” value ([2]; 300 nmol/kg i.v.) was 0.03, the “Mean arterial pressure: 30 min, P (vs vehicle)” value ([2]; 300 nmol/kg i.v.) was “ns” and the “Mean arterial pressure: 12 h, P (vs vehicle)” value ([2]; 300 nmol/kg i.v.) was “ns”. The “MAP compared to vehicle” value ([2]; average of the first 12 h, three tested doses i.v.) was “no differences”, the “Heart rate: 12 h, Mean (bpm)” value ([2]; 30 nmol/kg i.v.) was 332 bpm and the “Mean arterial pressure: 12 h, Mean (mmHg)” value ([2]; 30 nmol/kg i.v.) was 106 mmHg. The “Heart rate: 30 min, Mean (bpm)” value ([2]; 30 nmol/kg i.v.) was 356 bpm, the “Mean arterial pressure: 30 min, Mean (mmHg)” value ([2]; 30 nmol/kg i.v.) was 116 mmHg and the “Heart rate: 12 h, Mean (bpm)” value ([2]; 100 nmol/kg i.v.) was 364 bpm. For the same compound, the “Mean arterial pressure: 12 h, Mean (mmHg)” value ([2]; 100 nmol/kg i.v.) was 104 mmHg, the “Heart rate: 30 min, Mean (bpm)” value ([2]; 100 nmol/kg i.v.) was 388 bpm and the “Mean arterial pressure: 30 min, Mean (mmHg)” value ([2]; 100 nmol/kg i.v.) was 114 mmHg. The “Heart rate: 12 h, Mean (bpm)” value ([2]; 300 nmol/kg i.v.) was 355 bpm, the “Mean arterial pressure: 12 h, Mean (mmHg)” value ([2]; 300 nmol/kg i.v.) was 102 mmHg and the “Heart rate: 30 min, Mean (bpm)” value ([2]; 300 nmol/kg i.v.) was 370 bpm. For the same compound, the “Mean arterial pressure: 30 min, Mean (mmHg)” value ([2]; 300 nmol/kg i.v.) was 111 mmHg, the “HR compared to vehicle” value [2, 3] was “no difference” and the “MAP compared to vehicle” value [2, 3] was “no difference”. For the same compound, the “change in HR” value ([2]; first 12 h, 30 nmol/kg i.v.) was “No change”, the “increase in HR” value ([2]; first 12 h, 100 nmol/kg i.v.) was 8.8±10.1% and the “increase in HR” value ([2]; first 12 h, 300 nmol/kg i.v.) was 6.4±6.6%.

From patent publication US20240209028A1, “CNP COMPOUNDS” (priority 2022, published 2024)
